Read-outs that look alike come from different tables or passages of the source.
Experiments:
MCF-7 cells = test: Effect of compounds on MCF-7 proliferation (E2-induced growth); assay type: cell-based; conditions: Homo sapiens, MCF7, 144 h, with E2 (1 nM), 6 days
Experimental: MCF-7 cells (50,000 per well) were grown in six-well plates in DME-F12 medium as described in Liu, et al., Mol. Cell Endocrinol, 87:19-28, 1992. The cells were given fresh medium plus the compounds being tested every other day. After 6 days of treatment, the cells were harvested and counted with a Coulter counter (Coulter Electronics, Hialeah, Fla.) as described by Liu et al., J. Natl. Cancer Inst., 86. 1758-1765, 1994; Tiwari et al., J. Natl, Cancer Inst. 86, 126-131, 1994. In some cases, 17-β-estradiol (E2) (1×10^-9 M) was also added in combination with the IC3 or DIM analogs.
__________________________________________________________________________
EFFECTS OF DIFFERENT CONCENTRATIONS OF I3C
AND SUBSTITUTED ANALOGS ON THE GROWTH
OF MCF-7 CELLS IN THE PRESENCF OF E2
% of E2-Induced Response (Conc. of I3C Analogs)
EFFECTS OF DIFFERENT CONCENTRATIONS OF DIM
AND SUBSTITUTED ANALOGS ON THE
GROWTH OF MCF-7 CELLS IN THE PRESENCE OF E2
% of E2-Induced Response (Conc. of DIM Analogs)

[1] = test system: DMBA-induced mammary tumor; conditions: dietary I3C; 20% Brussels sprouts; cited from earlier work
mammary tumors = conditions: oral, 20 hours prior to DMBA; cited from earlier work
[2] = test system: estrogen-regulated tumors; conditions: cited from earlier work
EROD = EROD in rats of the DMBA-induced mammary carcinoma model; assay type: in vivo, Sprague-Dawley rats; conditions: 10 treatments by gavage 5 mg/kg every other day, sacrificed day 21; mean ± standard error
[3] = Toxic endpoints (organ weights) in rats of the DMBA-induced mammary carcinoma model; assay type: in vivo, Sprague-Dawley rats; conditions: 10 treatments by gavage 5 mg/kg every other day, sacrificed day 21, mean ± standard error; for Uterine Wet Weight: control 0.182 ± 0.016; for Liver Weight: control 4.07 ± 0.19
[4] = test system: DMBA-induced mammary tumors; test: Tumor growth in DMBA-induced mammary carcinoma model; assay type: in vivo, Sprague-Dawley rats; conditions: 10 treatments by gavage 5 mg/kg every other day, sacrificed day 21; mean ± standard error
[5] = read-out: % of E2-Induced Response (Conc. of I3C Analogs)
[6] = read-out: % of E2-Induced Response (Conc. of DIM Analogs)

Compound `Cc1ccc2[nH]cc(CO)c2c1` [5-Methyl-I3C, 5-methyl-indole-3-carbinol] has an activity at 0.1 µM (MCF-7 cells; [5]) of 87.8 ± 11.1%, an activity at 1 µM (MCF-7 cells; [5]) of 81.6 ± 10.8% and an activity at 10 µM (MCF-7 cells; [5]) of 53 ± 4.24%. The activity at 50 µM (MCF-7 cells; [5]) was 0.87 ± 0.11% and the activity at 100 µM (MCF-7 cells; [5]) was 0.57 ± 0.2%.

Compound `Cc1c(CO)c2ccccc2n1C` [1,2-Dimethyl-I3C] has an activity at 0.1 µM (MCF-7 cells; [5]) of 98 ± 5.68%, an activity at 1 µM (MCF-7 cells; [5]) of 94.4 ± 7.73% and an activity at 10 µM (MCF-7 cells; [5]) of 65.9 ± 2.86%. The activity at 50 µM (MCF-7 cells; [5]) was 0.35 ± 0.24% and the activity at 100 µM (MCF-7 cells; [5]) was 0.42 ± 0.14%.

Work on `Clc1ccc2[nH]cc(Cc3c[nH]c4ccc(Cl)cc34)c2c1` [5-Chloro-DIM, 5,5'-dichloro-diindolylmethane] yielded an activity at 0.01 µM (MCF-7 cells; [6]) of 98.4 ± 11.2%, an activity at 0.1 µM (MCF-7 cells; [6]) of 98.3 ± 8.34% and an activity at 1 µM (MCF-7 cells; [6]) of 87.3 ± 5.98%. It also gave an activity at 5 µM (MCF-7 cells; [6]) of 0.75 ± 0.1% and an activity at 10 µM (MCF-7 cells; [6]) of 0.99 ± 0.27%.

For `OCc1c[nH]c2ccccc12` [I3C, indole 3-carbinol, reference compound], the “DMBA-induced mammary tumor formation and progression (in words)” value [1] is listed as “inhibited DMBA-induced mammary tumor formation and progression”, the “occurrence of mammary tumors (in words)” value (mammary tumors) is listed as “inhibited the occurrence of mammary tumors” and the “formation or growth of estrogen-regulated tumors (in words)” value ([2]; rodent mammary, endometrium and uterus) is listed as “inhibit formation or growth of estrogen-regulated tumors”. For the same compound, the “mammary carcinogenesis (in words)” value ([2]; rodent models) was “inhibits mammary carcinogenesis in rodent models”, the activity at 0.1 µM (MCF-7 cells; [5]) was 100 ± 5.7% and the activity at 1 µM (MCF-7 cells; [5]) was 96.3 ± 3.23%. It also gave an activity at 10 µM (MCF-7 cells; [5]) of 83.9 ± 2.46%, an activity at 50 µM (MCF-7 cells; [5]) of 36.9 ± 0.65% and an activity at 100 µM (MCF-7 cells; [5]) of 8.15 ± 1%.

With `COc1ccc2[nH]cc(Cc3c[nH]c4ccc(OC)cc34)c2c1` [5-Methoxy-DIM, 5,5'-dimethoxy-diindolylmethane] the EROD (EROD) was 151.2 ± 43.4 % Control, the “Uterine Wet Weight” value [3] was 0.224 ± 0.034 % body weight and the “Liver Weight” value [3] was 4.16 ± 0.23 % body weight. For the same compound, the “Tumor Volume” value [4] was 22.1 ± 4.4 % Control, the “Tumor Weight” value [4] was 22.1 ± 4.4 % Control and the activity at 0.01 µM (MCF-7 cells; [6]) was 87.2 ± 3.52%. The activity at 0.1 µM (MCF-7 cells; [6]) was 89.4 ± 3.12%, the activity at 1 µM (MCF-7 cells; [6]) was 69.4 ± 3.95% and the activity at 5 µM (MCF-7 cells; [6]) was 37.1 ± 4.52%. The activity at 10 µM (MCF-7 cells; [6]) was 11.4 ± 1.63%.

Work on `COc1ccc2[nH]cc(CO)c2c1` [5-Methoxy-I3C, 5-methoxy-indole-3-carbinol] yielded an activity at 0.1 µM (MCF-7 cells; [5]) of 87.6 ± 5.4%, an activity at 1 µM (MCF-7 cells; [5]) of 78.4 ± 11.9% and an activity at 10 µM (MCF-7 cells; [5]) of 58.9 ± 7.96%. It also gave an activity at 50 µM (MCF-7 cells; [5]) of 2.97 ± 0.2% and an activity at 100 µM (MCF-7 cells; [5]) of 0.61 ± 0.14%.

`OCc1c[nH]c2ccc(Cl)cc12` [5-Chloro-I3C, 5-chloro-indole-3-carbinol] showed an activity at 0.1 µM (MCF-7 cells; [5]) of 94 ± 11.2%, an activity at 1 µM (MCF-7 cells; [5]) of 92.4 ± 3.14% and an activity at 10 µM (MCF-7 cells; [5]) of 82.2 ± 4.55%. For the same compound, the activity at 50 µM (MCF-7 cells; [5]) was 29.8 ± 5.98% and the activity at 100 µM (MCF-7 cells; [5]) was 1.02 ± 0.22%.

For `c1ccc2c(Cc3c[nH]c4ccccc34)c[nH]c2c1` [DIM, 3,3'diindolylmethane, reference compound], the “occurrence of mammary tumors (in words)” value (mammary tumors) is listed as “inhibited the occurrence of mammary tumors”, the EROD (EROD) is listed as 106.1 ± 22.4 % Control and the “Uterine Wet Weight” value [3] is listed as 0.184 ± 0.027 % body weight. The “Liver Weight” value [3] was 3.87 ± 0.22 % body weight, the “Tumor Volume” value [4] was 19.9 ± 5.8 % Control and the “Tumor Weight” value [4] was 23.7 ± 6.0 % Control. The activity at 0.01 µM (MCF-7 cells; [6]) was 107 ± 8.43%, the activity at 0.1 µM (MCF-7 cells; [6]) was 97.3 ± 3.56% and the activity at 1 µM (MCF-7 cells; [6]) was 77 ± 5.16%. For the same compound, the activity at 5 µM (MCF-7 cells; [6]) was 22.5 ± 2.47% and the activity at 10 µM (MCF-7 cells; [6]) was 6.84 ± 0.71%.

For `O=[N+]([O-])c1ccc2[nH]cc(CO)c2c1` [5-Nitro-I3C], the activity at 0.1 µM (MCF-7 cells; [5]) was 94.7 ± 2.05%, the activity at 1 µM (MCF-7 cells; [5]) was 92.7 ± 3.89% and the activity at 10 µM (MCF-7 cells; [5]) was 44.2 ± 3.34%. For the same compound, the activity at 50 µM (MCF-7 cells; [5]) was 1.71 ± 0.06% and the activity at 100 µM (MCF-7 cells; [5]) was 0.39 ± 0.06%.

Compound `OCc1c[nH]c2ccc(Br)cc12` [5-Bromo-I3C, 5-bromo-indole-3-carbinol] has an activity at 0.1 µM (MCF-7 cells; [5]) of 96.3 ± 6.97%, an activity at 1 µM (MCF-7 cells; [5]) of 97.3 ± 6.33% and an activity at 10 µM (MCF-7 cells; [5]) of 94.4 ± 2.47%. For the same compound, the activity at 50 µM (MCF-7 cells; [5]) was 59.6 ± 1.05% and the activity at 100 µM (MCF-7 cells; [5]) was 14.9 ± 0.72%.

In the case of `Cn1cc(Cc2cn(C)c3ccccc23)c2ccccc21` [N-Methyl-DIM, N,N'-dimethyl-diindolylmethane], the activity at 0.01 µM (MCF-7 cells; [6]) is reported as 82.8 ± 10.8%, the activity at 0.1 µM (MCF-7 cells; [6]) is reported as 96.4 ± 2.94% and the activity at 1 µM (MCF-7 cells; [6]) is reported as 78.5 ± 3.03%. It also gave an activity at 5 µM (MCF-7 cells; [6]) of 3.92 ± 0.49% and an activity at 10 µM (MCF-7 cells; [6]) of 0.85 ± 0.12%.

Compound `Cn1cc(CO)c2ccccc21` [N-Methyl-I3C, N-methyl-indole-3-carbinol] has an activity at 0.1 µM (MCF-7 cells; [5]) of 95.6 ± 4.26%, an activity at 1 µM (MCF-7 cells; [5]) of 96.2 ± 1.66% and an activity at 10 µM (MCF-7 cells; [5]) of 47.8 ± 2.13%. The activity at 50 µM (MCF-7 cells; [5]) was 14.4 ± 0.9% and the activity at 100 µM (MCF-7 cells; [5]) was 3.91 ± 0.64%.

Compound `Brc1ccc2[nH]cc(Cc3c[nH]c4ccc(Br)cc34)c2c1` [5-Bromo-DIM, 5,5'-dibromo-diindolylmethane] has an activity at 0.01 µM (MCF-7 cells; [6]) of 99.03 ± 0.49%, an activity at 0.1 µM (MCF-7 cells; [6]) of 106 ± 3.38% and an activity at 1 µM (MCF-7 cells; [6]) of 75 ± 1.35%. For the same compound, the activity at 5 µM (MCF-7 cells; [6]) was 9.92 ± 0.58% and the activity at 10 µM (MCF-7 cells; [6]) was 0.3 ± 0.04%.

For `Fc1ccc2[nH]cc(Cc3c[nH]c4ccc(F)cc34)c2c1` [5-Fluoro-DIM, 5,5'-difluoro-diindolylmethane], the EROD (EROD) was 157.6 ± 22.1 % Control, the “Uterine Wet Weight” value [3] was 0.208 ± 0.044 % body weight and the “Liver Weight” value [3] was 4.30 ± 0.29 % body weight. For the same compound, the “Tumor Volume” value [4] was 35.8 ± 16.6 % Control, the “Tumor Weight” value [4] was 45.0 ± 20.0 % Control and the activity at 0.01 µM (MCF-7 cells; [6]) was 90.3 ± 2.5%. For the same compound, the activity at 0.1 µM (MCF-7 cells; [6]) was 103 ± 2.63%, the activity at 1 µM (MCF-7 cells; [6]) was 77.1 ± 3.51% and the activity at 5 µM (MCF-7 cells; [6]) was 35.7 ± 5.13%. It also gave an activity at 10 µM (MCF-7 cells; [6]) of 8.46 ± 1.17%.

From patent US5948808A, “Indole-3-carbinol, diindolylmethane and substituted analogs as antiestrogens” (The Texas A&M University System, priority 1997, dated 1999)
